According to ChEMBL document CHEMBL1142732, “In-depth study of tripeptide-based alpha-ketoheterocycles as inhibitors of thrombin. Effective utilization of the S1' subsite and its implications to structure-based drug design” (J Med Chem, 2005):

Each compound was assayed on Oryctolagus cuniculus (assay: In vivo effective intravenous dose for that was determined in Rabbit deep vein thrombosis model). Conditions: not given; call rule not given here.

In the case of `CN[C@H](Cc1ccccc1)C(=O)N1CCC[C@H]1C(=O)NC(CCCN=C(N)N)C(=O)c1nc2ccc(C(=O)OC)cc2s1` (stereo partly specified), the ED50 is reported as 0.35 mg/kg.

The compounds below were run against T1, Serine protease 1 (Bos taurus, UniProt P00760) (assay: Binding affinity against bovine trypsin; NA=Not active at 1 uM). Conditions: not given.
T1 sequence (P00760 whole entry): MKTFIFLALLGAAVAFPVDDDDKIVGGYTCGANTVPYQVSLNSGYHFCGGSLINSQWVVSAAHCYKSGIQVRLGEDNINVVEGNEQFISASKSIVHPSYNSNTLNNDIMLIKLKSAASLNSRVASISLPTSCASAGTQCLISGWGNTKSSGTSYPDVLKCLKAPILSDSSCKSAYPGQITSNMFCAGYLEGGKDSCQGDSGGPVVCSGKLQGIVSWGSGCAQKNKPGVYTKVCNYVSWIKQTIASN

For `CCCC[C@H](NC(=O)[C@@H]1CCCN1C(=O)[C@@H](Cc1ccccc1)NC)C(=O)c1nc2ccccc2s1`, the Ki was “Not Active”.

The compounds below were run against T2, Prothrombin (Homo sapiens, UniProt P00734) (assay: Binding affinity determined against human alpha thrombin). Conditions: not given.

Going from `CNCCCC[C@H](NC(=O)[C@@H]1CCCN1C(=O)[C@@H](Cc1ccccc1)NC)C(=O)c1nc2ccccc2s1` to `CCS(=O)(=O)N[C@H](Cc1ccccc1)C(=O)N1CCC[C@H]1C(=O)NC(CCCN=C(N)N)C(=O)c1nc2ccccc2s1` (stereo partly specified), the Ki falls from 3700 nM to 24 nM (150-fold).

Compared with `CN[C@H](Cc1ccccc1)C(=O)N1CCC[C@H]1C(=O)NC(CCCN=C(N)N)C(=O)c1nc2ccc3ccccc3c2s1` (stereo partly specified), `CN[C@H](Cc1ccccc1)C(=O)N1CCC[C@H]1C(=O)NC(CCCN=C(N)N)C(=O)c1nc2c(s1)CCCC2` (stereo partly specified) is 5.9-fold higher in Ki: 0.58 nM for the first, 3.4 nM for the second.

First: CN[C@H](Cc1ccccc1)C(=O)N1CCC[C@H]1C(=O)NC(C(=O)c1nc2ccccc2s1)C1CCC(N)CC1 (stereo partly specified)
Second: CN[C@H](Cc1ccccc1)C(=O)N1CCC[C@H]1C(=O)N[C@@H](Cc1ccccc1)C(=O)c1nc2ccccc2s1
The Ki of the first is 65-fold lower: 110 nM for the first, 7100 nM for the second. The first binds more tightly here.

`CN[C@H](Cc1ccccc1)C(=O)N[C@H](C(=O)NC(CCCN=C(N)N)C(=O)c1nc2ccccc2s1)C(C)C` (stereo partly specified) showed a Ki of 21 nM.

Species: Homo sapiens
Experiment: Inhibitory concentration against gel filtered platelet aggregation induced by alpha thrombin
Type: functional
Conditions: not given

First: CNCCCC[C@H](NC(=O)[C@@H]1CCCN1C(=O)[C@@H](Cc1ccccc1)NC)C(=O)c1nc2ccccc2s1
Second: CCS(=O)(=O)N[C@H](Cc1ccccc1)C(=O)N1CCC[C@H]1C(=O)NC(CCCN=C(N)N)C(=O)c1nc2ccccc2s1 (stereo partly specified)
The IC50 of the first is 110-fold higher: 5200 nM for the first, 46 nM for the second. The second is the more potent here.

Compared with `CN[C@H](Cc1ccccc1)C(=O)N1CCC[C@H]1C(=O)NC(C(=O)c1nc2ccccc2s1)C1CCC(N)CC1` (stereo partly specified), `CN[C@H](Cc1ccccc1)C(=O)N1CCC[C@H]1C(=O)NC(CCCN=C(N)N)C(=O)c1nc2ccc(C(=O)OC)cc2s1` (stereo partly specified) is 1.9-fold lower in IC50: 76 nM for the first, 39 nM for the second. The second is the more potent here.

Going from `CN[C@H](Cc1ccccc1)C(=O)N1CCC[C@H]1C(=O)NC(CCCN=C(N)N)C(=O)c1nc2c(s1)CCCC2` (stereo partly specified) to `CN[C@H](Cc1ccccc1)C(=O)N[C@H](C(=O)NC(CCCN=C(N)N)C(=O)c1nc2ccccc2s1)C(C)C` (stereo partly specified), the IC50 rises from 22 nM to 180 nM (8.2-fold).

These compounds were tested against T1, Serine protease 1 (assay: Binding affinity against bovine trypsin). Conditions: not given.

First: CNCCCC[C@H](NC(=O)[C@@H]1CCCN1C(=O)[C@@H](Cc1ccccc1)NC)C(=O)c1nc2ccccc2s1
Second: CCS(=O)(=O)N[C@H](Cc1ccccc1)C(=O)N1CCC[C@H]1C(=O)NC(CCCN=C(N)N)C(=O)c1nc2ccccc2s1 (stereo partly specified)
The Ki of the first is 39-fold higher: 1200 nM for the first, 31 nM for the second. The second binds more tightly here.

First: CN[C@H](Cc1ccccc1)C(=O)N1CCC[C@H]1C(=O)NC(CCCN=C(N)N)C(=O)c1nc2ccc3ccccc3c2s1 (stereo partly specified)
Second: CN[C@H](Cc1ccccc1)C(=O)N1CCC[C@H]1C(=O)NC(CCCN=C(N)N)C(=O)c1nc2ccc(C(=O)OC)cc2s1 (stereo partly specified)
The Ki of the first is 2.1-fold lower: 15 nM for the first, 31 nM for the second. The first binds more tightly here.

Going from `CN[C@H](Cc1ccccc1)C(=O)N1CCC[C@H]1C(=O)NC(C(=O)c1nc2ccccc2s1)C1CCC(N)CC1` (stereo partly specified) to `CN[C@H](Cc1ccccc1)C(=O)N1CCC[C@H]1C(=O)N[C@@H](Cc1ccccc1)C(=O)c1nc2ccccc2s1`, the Ki rises from 330 nM to 12000 nM (36-fold).

Going from `CN[C@H](Cc1ccccc1)C(=O)N1CCC[C@H]1C(=O)NC(CCCN=C(N)N)C(=O)c1nc2c(s1)CCCC2` (stereo partly specified) to `CN[C@H](Cc1ccccc1)C(=O)N[C@H](C(=O)NC(CCCN=C(N)N)C(=O)c1nc2ccccc2s1)C(C)C` (stereo partly specified), the Ki falls from 4.4 nM to 1.5 nM (2.9-fold).

What follows are compounds tested against T2, Prothrombin (assay: Inhibitory concentration against human alpha thrombin). Conditions: not given.

Going from `CN[C@H](Cc1ccccc1)C(=O)N1CCC[C@H]1C(=O)NC(CCCN=C(N)N)C(=O)c1nc2ccc3ccccc3c2s1` (stereo partly specified) to `CCS(=O)(=O)N[C@H](Cc1ccccc1)C(=O)N1CCC[C@H]1C(=O)NC(CCCN=C(N)N)C(=O)c1nc2ccccc2s1` (stereo partly specified), the IC50 rises from 60 nM to 500 nM (8.3-fold). The first is the more potent here.

Compared with `CN[C@H](Cc1ccccc1)C(=O)N1CCC[C@H]1C(=O)NC(C(=O)c1nc2ccccc2s1)C1CCC(N)CC1` (stereo partly specified), `CN[C@H](Cc1ccccc1)C(=O)N1CCC[C@H]1C(=O)NC(CCCN=C(N)N)C(=O)c1nc2c(s1)CCCC2` (stereo partly specified) is 24-fold lower in IC50: 1900 nM for the first, 80 nM for the second. The second is the more potent here.

`CN[C@H](Cc1ccccc1)C(=O)N[C@H](C(=O)NC(CCCN=C(N)N)C(=O)c1nc2ccccc2s1)C(C)C` (stereo partly specified) gave an IC50 of 440 nM.

The compounds below were run on Cavia porcellus (assay: Percent change in blood pressure in guinea pig at 3 mg/kg dose). Conditions: not given.

Compared with `CN[C@H](Cc1ccccc1)C(=O)N1CCC[C@H]1C(=O)NC(C(=O)c1nc2ccccc2s1)C1CCC(N)CC1` (stereo partly specified), `CN[C@H](Cc1ccccc1)C(=O)N[C@H](C(=O)NC(CCCN=C(N)N)C(=O)c1nc2ccccc2s1)C(C)C` (stereo partly specified) is lower in “Delta BP” value: -25% for the first, -47% for the second.

These compounds were tested against T2, Prothrombin (assay: Inhibition constant against human alpha thrombin). Conditions: not given.

`CCS(=O)(=O)N[C@H](Cc1ccccc1)C(=O)N1CCC[C@H]1C(=O)NC(CCCN=C(N)N)C(=O)c1nc2ccccc2s1` (stereo partly specified) and `CN[C@H](Cc1ccccc1)C(=O)N[C@H](C(=O)NC(CCCN=C(N)N)C(=O)c1nc2ccccc2s1)C(C)C` (stereo partly specified) are within 1.5-fold of each other in Ki: 24 nM for the first, 21 nM for the second.

The compounds below were run on Cavia porcellus (assay: Percent change in blood pressure in guinea pig at 1 mg/kg dose). Conditions: not given.

With `CNCCCC[C@H](NC(=O)[C@@H]1CCCN1C(=O)[C@@H](Cc1ccccc1)NC)C(=O)c1nc2ccccc2s1` the “Delta BP” value was -16%.

Species: Cavia porcellus
Experiment: animal or person
Conditions: Blood, iv
Description: In vivo effective intravenous dose for eliciting a 25% decrease in blood pressure in anesthetized Guinea pig

`CN[C@H](Cc1ccccc1)C(=O)N1CCC[C@H]1C(=O)NC(CCCN=C(N)N)C(=O)c1nc2ccc(C(=O)OC)cc2s1` (stereo partly specified) showed an ED25 of 13.4 mg/kg.

What follows are compounds tested against T2, Prothrombin (assay: Inhibitory concentration against human alpha thrombin; NA = Not active at 1 uM). Conditions: not given.

`CNCCCC[C@H](NC(=O)[C@@H]1CCCN1C(=O)[C@@H](Cc1ccccc1)NC)C(=O)c1nc2ccccc2s1` was tested, and the IC50 was “Not Active”.

What follows are compounds tested on Canis familiaris (assay: In vivo effective intravenous dose for that reduces thrombus weight accumulation on a silk fiber by 50% was determined in Dog arteriovenous shunt model). Conditions: Canis lupus familiaris.
Type: functional

For `CN[C@H](Cc1ccccc1)C(=O)N1CCC[C@H]1C(=O)NC(CCCN=C(N)N)C(=O)c1nc2ccc(C(=O)OC)cc2s1` (stereo partly specified), the ED50 was 0.47 mg/kg.

These compounds were tested against T2, Prothrombin (assay: Inhibitory concentration against human alpha thrombin; NA=Not active at 1 uM). Conditions: not given.

In the case of `CN[C@H](Cc1ccccc1)C(=O)N1CCC[C@H]1C(=O)N[C@@H](Cc1ccccc1)C(=O)c1nc2ccccc2s1`, the IC50 is reported as “Not Active”.

The compounds below were run on Cavia porcellus (assay: Percent change in blood pressure in guinea pig at 10 mg/kg dose). Conditions: not given.

First: CN[C@H](Cc1ccccc1)C(=O)N1CCC[C@H]1C(=O)NC(CCCN=C(N)N)C(=O)c1nc2ccc3ccccc3c2s1 (stereo partly specified)
Second: CCS(=O)(=O)N[C@H](Cc1ccccc1)C(=O)N1CCC[C@H]1C(=O)NC(CCCN=C(N)N)C(=O)c1nc2ccccc2s1 (stereo partly specified)
The “Delta BP” value of the first is lower: -51% for the first, -36% for the second.

Going from `CN[C@H](Cc1ccccc1)C(=O)N1CCC[C@H]1C(=O)NC(CCCN=C(N)N)C(=O)c1nc2c(s1)CCCC2` (stereo partly specified) to `CN[C@H](Cc1ccccc1)C(=O)N1CCC[C@H]1C(=O)NC(CCCN=C(N)N)C(=O)c1nc2ccc(C(=O)OC)cc2s1` (stereo partly specified), the “Delta BP” value rises from -70% to -16%.
